Legend:
[1] = Ratio of ED50 to that of taxol.
[2] = In vitro binding affinity to reduce the supernatant protein concentration of the microtubule

**Q.** What does the source list for `CC(=O)O[C@H]1C(=O)[C@@]2(C)[C@H]([C@H](OC(=O)c3ccccc3)[C@]3(O)C[C@H](OC(=O)[C@H](O)[C@@H](NC(=O)c4ccccc4)c4ccccc4)C(C)=C1C3(C)C)[C@]1(OC(C)=O)CO[C@@H]1C[C@@H]2O`?
**A.** Ratio [1]: 1; ED50 [2]: 0.93 µM

**Q.** Which results are given for `CC(=O)O[C@H]1C(=O)[C@@]2(C)[C@H]([C@H](OC(=O)c3ccccc3)[C@]3(O)C[C@H](OC(=O)[C@H](O)[C@@H](NC(=O)OC(C)(C)C)c4ccccc4)C(C)=C1C3(C)C)[C@]1(O)CO[C@@H]1C[C@@H]2O`?
**A.** Ratio [1]: > 32; ED50 [2]: > 30 µM

**Q.** What does the source list for `CC(=O)O[C@H]1C(=O)[C@@]2(C)[C@H]([C@H](OC(=O)c3ccccc3)[C@]3(O)C[C@H](OC(=O)[C@H](O)[C@@H](NC(=O)c4ccccc4)c4ccccc4)C(C)=C1C3(C)C)[C@]1(O)CO[C@@H]1C[C@@H]2O`?
**A.** Ratio [1]: > 32; ED50 [2]: > 30 µM

Source: ChEMBL document CHEMBL1127429, “4-Deacetyltaxol and 10-acetyl-4-deacetyltaxotere: synthesis and biological evaluation” (J Med Chem, 1994)
